# “Also recorded” adds a separate entry of the source.
# Tested on: WT recipient mice transplanted with Dnmt3a-mutant cells (Dnmt3a;Npm1-mutant)
# Assay: Navitoclax treatment of mice transplanted with Dnmt3a-mutant cells, followed by tamoxifen induction of the Npm1 mutation (progression from clonal hematopoiesis to myeloid malignancy)
# Format: in vivo, mouse
# Experimental: FIG. 6A-6E: Navitoclax treatment attenuates Dnmt3a-mutant peripheral blood myeloid cell overproduction. (FIG. 6A) Dnmt3a-mutant cells were transplanted into wild type recipient mice, 12 weeks post-transplant Navitoclax or vehicle control was administered, and 2 weeks later the Npm1 mutation was induced in the Dnmt3a-mutant cells. (FIG. 6B) Frequency of donor-derived mature Dnmt3a;Npm1-mutant myeloid cells in peripheral blood of Navitoclax or vehicle control treated transplant mice. (FIG. 6C) Engraftment of donor-derived mature Dnmt3a;Npm1-mutant myeloid cells in BM (FIG. 6D) β-gal expression in BMSCs, and (FIG. 6E) monocyte count in navitoclax versus vehicle treated mice.
# Next, the functional importance of BMSC senescence in Dnmt3a-mutant transformation to AML was evaluated. Dnmt3a-mutant cells were transplanted into WT recipient mice, administered the senolytic Navitoclax or vehicle control, and then induced the AML driver mutation Npm1^c in vivo.
# Using the senolytic Navitoclax, targeting Bcl-2/Bcl-xL, we evaluated the extent to which removing senescent cells caused by Dnmt3a-mutant haematopoiesis in vivo would delay progression from clonal hematopoiesis to myeloid malignancy. Briefly, Dnmt3a-mutant cells (cells from BM derived from CD45.2^+; Dnmt3a^R787H/+ MxCre; Npm1^frt-cA/+Flpo^ERT mice) were transplanted into recipient mice (CD45.1^+ mice) (FIG. 6A). After 12 weeks (‘Pre-senolytic’), recipient mice were either administered vehicle control or the senolytic agent, navitoclax, by oral gavage to selectively deplete senescent cells. Navitoclax was administered at a dosage of 50 mg/kg/day for 1 week, followed by 2 weeks of no treatment, followed by 1 week of treatment. Blood samples were collected from Pre-senolytic mice before administration of vehicle control or navitoclax. Following navitoclax treatment (‘Post-senolytic’), the AML driver mutation Npm1^cA/+ (‘TAM’) was induced using tamoxifen to initiate progression to myeloid malignancy. Blood samples were collected from Post-senolytic mice and TAM mice. Tamoxifen was administered for a period of 1 week. Blood samples were taken from tamoxifen treated mice (“Post-Npm1”).
substance,measurement,setting,value
navitoclax,frequency of donor (CD45.2+) cells in the BM,"5 months after tamoxifen treatment (harvest), relative to vehicle treated controls, FIG. 6C",lower frequency
same,BMSC senescence (measured by β-gal),"5 months after tamoxifen treatment (harvest), relative to vehicle treated controls, FIG. 6D",maintained lower BMSC senescence
same,"monocyte (""white blood cell"" or ""WBC"") count","5 months after tamoxifen treatment (harvest), relative to vehicle treated controls, FIG. 6E",reduced monocyte
same,frequency of myeloid cells (CD45.2+) in the peripheral blood (PB),"Post-Npm1 sampling, navitoclax 50 mg/kg/day oral gavage, 1 week on, 2 weeks off, FIG. 6B",reduced frequency
same,peripheral blood myeloid cell overproduction,"concurrent with transformation of Dnmt3a;Npm1-mutant cells, vs vehicle control",reduced; also recorded: attenuates
